What all share (format): ADME, organism-based
The nature of series [1]: AUC (0 to 6 hrs) in Sprague-Dawley rat at 10 mg/kg, po. As to conditions: plasma. Set-up: time < 6 hr, dose 10 mg/kg, route oral.
Series [2] can be described thus: Cmax in Sprague-Dawley rat at 10 mg/kg, po. Set-up: dose 10 mg/kg, route oral. As to conditions: in vivo.
A short description of series [3]: Tmax in Sprague-Dawley rat at 10 mg/kg, po. As to conditions: in vivo. Set-up: dose 10 mg/kg, route oral.
Series [4] is described as follows: Volume of distribution at steady state in Sprague-Dawley rat at 10 mg/kg, po and 5 mg/kg, iv. Conditions: in vivo, read-out: Vdss.
Series [5] is described as follows: AUC (0 to infinity) in Sprague-Dawley rat at 10 mg/kg, po. Set-up: time infinity, dose 10 mg/kg, route oral. As to conditions: plasma.
The nature of series [6]: Oral bioavailability in Sprague-Dawley rat at 10 mg/kg. As to conditions: in vivo.
A short description of series [7]: AUC (0 to infinity) in Sprague-Dawley rat at 5 mg/kg, iv. On the set-up: time infinity, dose 5 mg/kg, route intravenous. As to conditions: plasma.

On to `N#Cc1c(-c2ccc(S(=O)(=O)NC(CF)CF)cn2)n(C2CCC2)c2cc(C3CC3)ccc12`, for which the AUC(0-t) at 6 h in series [1] is 6.2 µM·h. Besides, the concentration in series [2] peaked (Cmax) at 759 ng/mL. Moreover, the Tmax in series [3] was found to be 2 h.
With `N#Cc1c(-c2ccc(S(=O)(=O)NC(CF)CF)cn2)n(C2CCC2)c2cc(OC(F)F)ccc12`, in series [1], the exposure AUC(0-t) at 6 h is 3.42 µM·h. In series [4], the Vd was 4.7 L/kg. Further, the AUC(0-inf) amounted to 16 µM·h in series [5] and 13 µM·h in series [7]. The molecule also displayed a bioavailability in series [6] of 62%. Besides, the Cmax in series [2] was 348 ng/mL. Moreover, in series [3], the Tmax was determined as 3 h.
`CC(C)NS(=O)(=O)c1ccc(-c2c(C#N)c3ccc(OC(F)F)cc3n2C2CCC2)nc1` showed an AUC(0-t) at 6 h in series [1] of 0.579 µM·h. The molecule also showed a Cmax in series [2] of 53 ng/mL. Moreover, in series [3], the Tmax came to 2 h.
Taken in the same sequence, the figures for `CC(C)NS(=O)(=O)c1ccc(-c2c(C#N)c3ccc(C4CC4)cc3n2C2CCC2)nc1` were 0.964 µM·h, 87 ng/mL and 2 h.

A word on the AUC(0-t): it is the area under the concentration-time curve up to a stated or last time point. Low readings indicate less exposure, high ones more exposure. The term Cmax denotes the maximum level reached in the sampled fluid or tissue. As a reminder, the Tmax is the time at which the peak concentration occurs. Broadly, the AUC(0-inf) is total exposure, with the tail of the curve extrapolated. The bioavailability is the share of a dose that reaches the circulation, judged against a reference dose that is usually intravenous. A lower bioavailability goes with poor availability.

The values are drawn from ChEMBL document CHEMBL2396606, “Discovery of novel HCV inhibitors: synthesis and biological activity of 6-(indol-2-yl)pyridine-3-sulfonamides targeting hepatitis C virus NS4B” (Bioorg Med Chem Lett, 2013).
